Results taken from patent publication US8829175B2, “Nucleic acids encoding polyvalent protein complexes” (IBC Pharmaceuticals, Inc., priority 2003, dated 2014).
Starred links: 1 amine or outer side, 2 acyl side, 3 side chain; linkers in the order of their positions; H or OH if unused. Non-standard residues stand in square brackets, D forms with d. Residues, ends and D or L forms follow the SMILES beside them. Groups on a side chain read outwards from the residue. *: point of attachment. DOTA = O=C(O)CN1CCN(CC(=O)O)CCN(CC(=O)*)CCN(CC(=O)O)CC1; NH(2-(imidazol-4-yl)ethyl) = c1ncc(CCN*)[nH]1; Suc = O=C(CCC(=O)[*:2])[*:1]; X1 = NC(=S)NN=CC(=O)*

Assays:
[1] = tested on: GW-39 (CEA positive) tumors; set-up: species or system nude mice; details: mouse, in vivo
Protocol: The utility of BS14HP for tumor pretargeting was evaluated in GW-39 tumor-bearing mice using a bivalent HSG peptide (IMP-241) labeled with ^111In. IMP-241 has a structure of DOTA-Phe-Lys(HSG)-D-Tyr-Lys(HSG)-NH2, where the N-terminal amino group of Phe is linked to a DOTA and the epsilon amino group of each lysine is derivatived with an HSG group. The tetrapeptide backbone (Phe-Lys-(D-Tyr)-Lys) contains a d-amino acid (D-Tyr) and the carboxyl group of the C-terminal lys is amidated.
(§1) The results from this analysis were compared with those of chemically linked hMN-14×679 (Fab′×Fab′) and BS1.5H (bispecific diabody). Nude mice bearing GW-39 (CEA positive) tumors were pre-targeted with BS14HP, BS1.5H or hMN-14×679. Initially, the bio-distribution was followed with ^131I-labeled bispecific agent. The tumor residence and blood clearance of ^131I-BS14HP is depicted in FIG. 7. As determined in preliminary experiments, the time interval between administration of bispecific targeting agent and of ^111In-IMP241 peptide is the amount of time required for the former to clear the blood to a concentration of 1% ID/g or less. […] IMP-241 (Immunomedics, Inc), a peptide containing two HSG groups and a DOTA moiety, was loaded with ^111Indium and injected in pre-targeted mice. The bio-distribution of the ^111In-IMP-241 was examined at 3 hours after injection (FIG. 8A) and the tumor/non-tumor ratios are shown in FIG. 8B.

in vivo = test: in vivo; set-up: species or system nude mice; details: nude, mouse
Protocol: (§2) IMP-245 was prepared and labeled using standard techniques known in the art. See, for example, published application US20030198595 (now issued U.S. Pat. No. 7,138,103), which is hereby incorporated by reference in its entirety. The experiment used 3 groups of 15 mice, each of which was necropsied, and 1 group of 5 mice that was imaged. Three groups of mice were administered 6 μCi ^125I-hBS14 (40 μg, 5.0×10^−10 moles). In the last group (imaging group), 3 mice received unlabeled hBS14. The amount of ^99mTc-IMP-245 administered to all the mice was ˜40 μCi (92 ng, 5.0×10^−11 moles) for a bispecific:peptide ratio of 10:1. […] Due to differences in tumor growth rates, only 20 mice were initially available for administration of hBS14. Fifteen mice were used to fill out Group II while 5 mice were used for Group I. The remaining mice (including the imaged mice) were injected one week later. Not all the mice implanted with GW-39 tumors developed usable tumors and, therefore, Group I only had 10 mice and were sacrificed at 1 hr post-peptide injection and 24 hrs post-injection.

[2] = tested on: human colonic tumor (GW-39) xenograft; test: in vivo; set-up: species or system nude mice; details: mouse
Protocol: as §2

[3] = tested on: WI2 IgG, an anti idiotypic antibody to hMN-14; test: BIAcore WI2 molar binding ratio of bispecific protein captured on HSG sensorchip; set-up: species or system rat; details: protein bound to HSG sensorchip, then WI2; theoretical maximum 1.0 for two CEA binding sites
Protocol: The analysis step is as follows. Samples of the culture media were diluted 1:5 in EB buffer (150 mM NaCl; 50 μM EDTA; 0.005% surfactant P20; 10 mM HEPES, pH 7.4) and injected ([…]) over a high-density, HSG-coupled sensorchip in a BIAcoreX system. Following injection of the diluted media, EB containing 20 μg/ml of WI2 IgG, an anti idiotypic antibody to hMN-14, was injected ([…]) over the sensorchip to confirm bispecific binding. The initial binding slopes were used to quantitate yields. Seven of the nine zeocin resistant clones tested produced bispecific protein with a yield of up to 3 mg per liter of culture media.
The W12:BS14HP molar binding ratio can be derived by comparison of the response units (RU) attained from BS14HP binding to the HSG sensorchip with the further RU increase from W12 binding to BS14HP with normalization for the respective molecular weights. Several BS14HP preps were analyzed with the measured ratio ranging from 0.8-0.9. […]
If the W12 binding is allowed to approach saturation, the stoichiometry of the binding can be determined. […] As each increase in RU level is directly proportional to the mass bound, the WI2:bsAb molar binding ratio can be calculated using the formula (RUWI2/RUhBS14)×(MWhBS14/MWWI2). hBS14 was designed to be bivalent for CEA (and monovalent for HSG) and as such should bind W12 (also bivalent) with a 1:1 molar ratio. […]

[4] = Blood clearance of radioiodinated bispecific agents in GW-39 tumor-bearing nude mice; assay type: in vivo; details: 131I-labeled bispecific agent, preliminary experiments
From the text: as §1

For C[C@@H](NC(=O)CN1CCN(CC(=O)O)CCN(CC(=O)O)CCN(CC(=O)O)CC1)C(=O)N[C@H](CCCCNC(=O)CNC(=O)CCC(=O)NCCc1cnc[nH]1)C(=O)N[C@H](CCC(=O)O)C(=O)N[C@H](CCCCNC(=O)CNC(=O)CCC(=O)NCCc1cnc[nH]1)C(N)=O [IMP281] ({DOTA}-[dA][dK]([Gly-Suc-NH(2-(imidazol-4-yl)ethyl)])[dE][dK]([Gly-Suc-NH(2-(imidazol-4-yl)ethyl)])-NH2), the “pretargeting experiments performed again with other peptides” value (from here on “pretargeting experiments performed again”) [1] was “same results”.

For NC(=O)[C@@H](CCCCNC(=O)CNC(=O)CCC(=O)NCCc1cnc[nH]1)NC(=O)[C@@H](Cc1ccc(O)cc1)NC(=O)[C@@H](CCCCNC(=O)CNC(=O)CCC(=O)NCCc1cnc[nH]1)NC(=O)[C@@H](Cc1ccccc1)NC(=O)CN1CCN(CC(=O)O)CCN(CC(=O)O)CCN(CC(=O)O)CC1 [IMP284] ({DOTA}-[dF][dK]([Gly-Suc-NH(2-(imidazol-4-yl)ethyl)])[dY][dK]([Gly-Suc-NH(2-(imidazol-4-yl)ethyl)])-NH2), the “pretargeting experiments performed again” value [1] was “same results”.

With NC(=O)[C@@H](CCCCNC(=O)CNC(=O)CCC(=O)NCCc1c[nH]cn1)NC(=O)[C@@H](CCC(=O)O)NC(=O)[C@@H](CCCCNC(=O)CNC(=O)CCC(=O)NCCc1c[nH]cn1)NC(=O)[C@@H](Cc1ccc(O)cc1)NC(=O)CN1CCN(CC(=O)O)CCN(CC(=O)O)CCN(CC(=O)O)CC1 [IMP288] ({DOTA}-[dY][dK]([Gly-Suc-NH(2-(imidazol-4-yl)ethyl)])[dE][dK]([Gly-Suc-NH(2-(imidazol-4-yl)ethyl)])-NH2) the “pretargeting experiments performed again” value [1] was “same results”.

NC(=O)[C@H](CCCCNC(=O)[C@H](CS)NC(=O)C=NNC(N)=S)NC(=O)[C@H](CCCCNC(=O)CNC(=O)CCC(=O)NCCc1c[nH]cn1)NC(=O)[C@@H](Cc1ccc(O)cc1)NC(=O)[C@H](CCCCNC(=O)CNC(=O)CCC(=O)NCCc1c[nH]cn1)NC(=O)[C@H](Cc1ccccc1)NC(=O)CN1CCN(CC(=O)O)CCN(CC(=O)O)CCN(CC(=O)O)CC1 [IMP-245] ({DOTA}-FK([Gly-Suc-NH(2-(imidazol-4-yl)ethyl)])[dY]K([Gly-Suc-NH(2-(imidazol-4-yl)ethyl)])K([Cys-X1])-NH2; N-terminus and C-terminus assumed) gave a tissue uptake at 1 h (in vivo) of 36.9 ± 6.42 %ID/g, a tissue uptake at 24 h (in vivo) of 3.81 ± 0.8 %ID/g and a tissue uptake at 24 h (in vivo; 92 ng) of 3.71 ± 0.43 %ID/g. For the same molecule, the tissue uptake at 24 h (in vivo; 92 ng, tumor uptake) was 0.3 ± 0.08 %ID/g, the tissue uptake at 4 h (in vivo; tumor uptake) was 15.9 ± 16.3 %ID/g and the “fold less peptide than hBS14 in the tumor” value [2] was 4.7 fold. The “fold more IMP-245 in the tumor versus hBS14” value [2] was 2.4 fold, the “fold more IMP-245 than hBS14 in the tumors” value [2] was “Approximately 2 fold” and the “relative amount of actual signal in the tumors, fold less” value [2] was 13 fold. The tumor uptake ([2]; nude, 4 h) was 14.53±4.90 % ID/g.

B1: BS14HP: bispecific trivalent heterodimer (SEQ ID NO:1 and 2) from Pichia pastoris, two binding sites for CEA and one for HSG (antibody)
heavy: EAEAEFMEVQLVESGGDLVKPGGSLKLSCAASGFTFSIYTMSWLRQTPGKGLEWVATLSGDGDDIYYPDSVKGRFTISRDNAKNSLYLQMNSLRAEDTALYYCARVRLGDWDFDVWGQGTTVSVSSGGGGSDIQLTQSPSSLSASVGDRVTITCKASQDVGTSVAWYQQKPGKAPKLLIYWTSTRHTGVPSRFSGSGSGTDFTFTISSLQPEDIATYYCQQYSLYRSFGQGTKVEIKRLEGGGSEVQLVESGGGVVQPGRSLRLSCSASGFDFTTYWMSWVRQAPGKGLEWIGEIHPDSSTINYAPSLKDRFTISRDNAKNTLFLQMDSLRPEDTGVYFCASLYFGFPWFAYWGQGTPVTVSVDHHHHHH
light: EAEAEFDIQLTQSPSSLSASVGDRVTITCKASQDVGTSVAWYQQKPGKAPKLLIYWTSTRHTGVPSRFSGSGSGTDFTFTISSLQPEDIATYYCQQYSLYRSFGQGTKVEIKRGGGQFMEVQLVESGGGVVQPGRSLRLSCSASGFDFTTYWMSWVRQAPGKGLEWIGEIHPDSSTINYAPSLKDRFTISRDNAKNTLFLQMDSLRPEDTGVYFCASLYFGFPWFAYWGQGTPVTVSGGGGSDIVMTQSPSSLAVSPGERVTLTCKSSQSLFNSRTRKNYLGWYQQKPGQSPKLLIYWASTRESGVPDRFSGSGSGTDFTLTINSLQAEDVAVYYCTQVYYLCTFGAGTKLELKRLDHHHHHH
In the case of B1, the “111In-IMP241 peptide specifically bound to the tumor, compared to mice pretargeted with BS1.5H or hMN14×679” value [1] is reported as “approximately three-fold”, the “WI2:bsAb molar binding ratio” value [3] is reported as 0.8-0.9 and the “pre-targeting clearance time (time to clear the blood to 1% ID/g or less)” value [4] is reported as 24 h.
